Assay results published in patent publication US6368788B1 (priority 1987, dated 2002).
Marks after values point to notes of the source that are not given here.

How the values were obtained:
C. albicans = test: Disseminated candidiasis: mean survival and kidney infection (Study 41B); assay type: in vivo, mice; conditions: for Kidney Infection: greater than 8 logs of C. albicans, day 5
Protocol: Study 41B: Using a standardized inoculum (i.e., 10^8 cells/mL), the LD95 value (=14.9×10^6 cells/animal) was determined by injecting different numbers of C. albicans cells iv into mice and recording deaths at 20 days. L-Glu-L-Trp was administered ip at doses of 1, 10, 100 and 300 μg/kg in either a prophylactic or therapeutic drug regimen (abbreviated PDR or TDR, respectively). Prophylaxis consisted of 3 ip injections on 3 consecutive days, with the last injection being 3 hours before injecting the C. albicans cells iv. Therapy consisted of 10 consecutive daily ip injections starting 24 hours after the iv injection of the C. albicans cells. Mean survival was determined at 10 days, and as an independent monitor for infection, kidneys were removed from nine parallel groups (12 animals each) of infected animals at 5 days and after microbiological isolation the numbers of C. albicans cultures counted.

[1] = Ophthalmic diseases, parabulbar or conjunctival instillation; assay type: in vivo, human
Protocol: Forty one patients (41; 17 men and 24 women; ranging in age from 17 to 68 years) with various eye diseases of infectious and non-infectious origin were treated with L-Glu-L-Trp. Patients having the following infectious, and non-infectious, ophthalmic diseases were entered into the trial: a) nonviral conjunctivitis, keratitis, chronic uveitis, persistent sties, and, focal chorioretinitis; and, b) retinal pigment dystrophy, Grenblad-Stranberg syndrome, and maculophathy, respectively. Five patients were Class II invalids due to vision impairment, 4 were Class III, and 32 were impaired but not invalid. […] L-Glu-L-Trp was administered daily in a single 0.1 mL (10 μg) dose by the parabulbar route (Group 1; n=21), or alternatively one drop of the dipeptide solution (5 μg) was delivered into the conjunctival cavity twice daily on each of 5 consecutive days (Group 2; n=20). Thirty six patients undergoing conventional therapy served as a control group (Group 3; n=36).
Clinical diagnoses of patients entered into Group 1 were as follows: 4 subjects had diagnosed adenoviral conjunctivitis; 2 subjects, recurring eyelid sties; 3 subjects, chronic serous-plastic uveitis; 3 subjects, central chorioretinitis; 5 subjects, central retinal dystrophy in both eyes; 4 subjects, pigment degeneration of the retina.
Clinical diagnoses of patients entered into Group 2 were as follows: namely, 7 subjects had diagnosed chronic serous-plastic uveitis, and 13 subjects adenoviral conjunctivitis.
Vision was assessed using standard measurements: i.e., field of vision, visual acuity, electrophysiological indices. Ophthalmascopic examination was used to evaluate and score corneal epithelial integrity, extent of edema and infiltration of the cornea (all strata), uveitis, retinal inflammation (edema, focal and peripheral changes, exudation, hemorrhage, plasmohemorrhagia), and expansion in the vitreous body. Immune parameters in peripheral blood were also assessed. Following treatment, the trial subjects were followed for not less than 12 months.

[2] = tested on: Mycobacterium tuberculosis; design: species or system human; conditions: in vivo
[3] = Occupational radiation exposure to 100-200 R; design: species or system human; conditions: in vivo
Source text: A total of 263 patients and 18 control patients sustained exposure to 100-200 Roentgens of occupational radiation over a period of several weeks.

[4] = Thoracic cavity tumors: focal radiation therapy then L-Glu-L-Trp, clinical complications; assay type: in vivo, human; conditions: for Complications: Cardio-Pulm. / Complications: Mortality / Complications: Septic / Complications: Total: 5 × im 100 μg
Protocol: Surgical removal of thoracic tumors was followed in 38 patients by focal radiation therapy and then a course of L-Glu-L-Trp therapy consisting of 5 daily im injections of 100 μg L-Glu-L-Trp each. Only radiation therapy (and supportive antibiotic therapy) was administered as a control to 56 patients.

[5] = tested on: peripheral blood leukocytes
Protocol: Twenty-eight patients (15) having the same disease profile and under conventional treatment formed a control group.
The patients presented with the following diagnosed odontogenic infections: 18 with limited purulent infection(s), 7 with focal infection(s), 3 with diffuse infection(s). In addition, 3 patients presented with destructive osteomyelitis and 15 with plegmons mandible.
All 15 children in the conventional treatment group were evaluated before therapy. Post-treatment measurements were performed with peripheral blood samples that were collected from all the conventional and L-Glu-L-Trp treated children. Fifteen healthy normal children were also evaluated to determine the normal mean values in the respective assays (Normal Healthy Control).

Influenza A = conditions: Combined Therapy: Conventional + L-Glu-L-Trp
Protocol: A clinical trial was conducted in a group of 588 patients between the ages of 17-21 years all having a confirmed infection with Influenza A, (i.e., confirmation by either hemagglutination-inhibition or the presence of specific viral antigens).

[6] = children, periapical granulomas, L-Glu-L-Trp Combination, After Therapy

Substance: L-Glu-L-Trp
- Survival % 6d (C. albicans; PDR, 1 μg/kg ip): 50%
- Survival % 8d (C. albicans; PDR, 1 μg/kg ip): 20%
- Survival Mean (C. albicans; PDR, 1 μg/kg ip): 6.2 ± 2.0 days
- Kidney Infection (C. albicans; PDR, 1 μg/kg ip): 58%
- Survival % 6d (C. albicans; PDR, 10 μg/kg ip): 60%
- Survival % 8d (C. albicans; PDR, 10 μg/kg ip): 20%
- Survival Mean (C. albicans; PDR, 10 μg/kg ip): 6.4 ± 2.2 days
- Kidney Infection (C. albicans; PDR, 10 μg/kg ip): 58%
- Survival % 6d (C. albicans; PDR, 100 μg/kg ip): 80%
- Survival % 8d (C. albicans; PDR, 100 μg/kg ip): 40%
- Survival Mean (C. albicans; PDR, 100 μg/kg ip): 7.9 ± 1.9 days
- Kidney Infection (C. albicans; PDR, 100 μg/kg ip): 75%
- Survival % 6d (C. albicans; PDR, 300 μg/kg ip): 80%
- Survival % 8d (C. albicans; PDR, 300 μg/kg ip): 50%
- Survival Mean (C. albicans; PDR, 300 μg/kg ip): 7.8 ± 2.1 days
- Kidney Infection (C. albicans; PDR, 300 μg/kg ip): 58%
- Survival % 6d (C. albicans; TDR, 1 μg/kg ip): 60%
- Survival % 8d (C. albicans; TDR, 1 μg/kg ip): 50%
- Survival Mean (C. albicans; TDR, 1 μg/kg ip): 7.3 ± 2.7 days
- Kidney Infection (C. albicans; TDR, 1 μg/kg ip): 67%
- Survival % 6d (C. albicans; TDR, 10 μg/kg ip): 50%
- Survival % 8d (C. albicans; TDR, 10 μg/kg ip): 30%
- Survival Mean (C. albicans; TDR, 10 μg/kg ip): 6.2 ± 2.2 days
- Kidney Infection (C. albicans; TDR, 10 μg/kg ip): 50%
- Survival % 6d (C. albicans; TDR, 100 μg/kg ip): 80%
- Survival % 8d (C. albicans; TDR, 100 μg/kg ip): 50%
- Survival Mean (C. albicans; TDR, 100 μg/kg ip): 7.8 ± 1.9 days
- Kidney Infection (C. albicans; TDR, 100 μg/kg ip): 75%
- Survival % 6d (C. albicans; TDR, 300 μg/kg ip): 80%
- Survival % 8d (C. albicans; TDR, 300 μg/kg ip): 40%
- Survival Mean (C. albicans; TDR, 300 μg/kg ip): 7.8 ± 2.1 days
- Kidney Infection (C. albicans; TDR, 300 μg/kg ip): 67%
- Survival (C. albicans; prophylactic and therapeutic treatments): significantly increased the number of animals surviving at days 6 and 8
- Patients with “good response” ([1]; Group 1, parabulbar): 9
- Patients with “marked favorable response” ([1]; Group 1, parabulbar): 9
- Patients with “good response” ([1]; Group 2, instillation): 2
- Patients with “marked favorable response” ([1]; Group 2, instillation): 18
- Laboratory effects ([1]; in vivo): increase in the number of circulating peripheral blood B- and T-lymphocytes
- Patients with “poor response” ([1]; in vivo): 3
- Subjects in whom treatment was found effective ([1]; infectious eye diseases): 66.7%
- Patients with marked positive response ([1]; infectious eye diseases, parabulbar introduction): 75%
- Patients with good response ([1]; instillation): 10%
- Patients with marked positive response ([1]; instillation): 90%
- Faster recovery than control group, adenoviral conjunctivitis ([1]; marked responses): 10 to 13 days
- Rise in visual acuity, chronic serous-plastic uveitis ([1]; marked responses): > 0.1
- Patients with good response ([1]; parabulbar introduction): 15%
- Clinical outcome at 2 months [2]: disappearance of toxic symptoms, a resorption of pulmonary infiltrates, and a resolution of pulmonary cavities
- Considerable Improvement, % of patients [2]: 24%
- Considerable Improvement, No. of patients [2]: 9
- Improvement, % of patients [2]: 73%
- Improvement, No. of patients [2]: 27
- No Change, % of patients [2]: 3%
- No Change, No. of patients [2]: 1
- Patients with closure of degeneration foci and cavities in the lungs [2]: 35 of the 37
- Patients with “improvement” [2]: 27
- Response rate [2]: 97%
- Outcome [3]: restoration of normal, or near normal, peripheral blood immune indices in all patients
- Complications: Cardio-Pulm. ([4]; Esophagus, 22 patients): 1
- Complications: Mortality ([4]; Esophagus, 22 patients): 0
- Complications: Septic ([4]; Esophagus, 22 patients): 1
- Complications: Total ([4]; Esophagus, 22 patients): 2
- Complications: Cardio-Pulm. ([4]; Lung, 16 patients): 0
- Complications: Mortality ([4]; Lung, 16 patients): 0
- Complications: Septic ([4]; Lung, 16 patients): 0
- Complications: Total ([4]; Lung, 16 patients): 1
- Clinical outcome ([4]; human, in vivo): decreased the total number of complications
- B-Lymphocytes % of Normal Value [5, 6]: (108%)
- B-Lymphocytes: No. [5, 6]: 0.67 ± 0.05 10^9/L
- IgA [5, 6]: 1.09 ± 0.04 g/L
- IgA % Normal Value [5, 6]: (104%)
- IgG [5, 6]: 10.78 ± 0.83 g/L
- IgG % Normal Value [5, 6]: (117%)
- IgM [5, 6]: 0.93 ± 0.07 g/L
- IgM % Normal Value [5, 6]: (95%)
- LMIR Response: % w/PHA [5, 6]: 14.65 ± 3.11 %
- Leukocytes % Normal Value [5, 6]: (97%)
- Leukocytes: No. [5, 6]: 6.60 ± 0.39* 10^9/L
- Lymphocytes % Normal Value [5, 6]: (36%)
- Lymphocytes: No. [5, 6]: 2.37 ± 0.21 10^9/L
- T-Lymphocytes % of Normal Value [5, 6]: (98%)
- T-Lymphocytes: No. [5, 6]: 1.24 ± 0.11* 10^9/L
- T-lymphocyte counts, % of normal levels ([5]; following combination therapy): 98%
- Increase in T-helper Cells Percentage (Influenza A): 17%
- Length of Required Therapy (Influenza A): 7.1 ± 0.3 days
- Pharyngitis manifestations (Influenza A): 3.6 ± 0.3 days
- Secondary (Pneumonia) Complications (Influenza A): 4.0%
- T-helper/T-suppressor Ratio (Influenza A): 2.7
- Tracheitis manifestations (Influenza A): 3.6 ± 0.3 days
